Measurements published in ChEMBL document CHEMBL1155258, “Computational selection of inhibitors of Abeta aggregation and neuronal toxicity” (Bioorg Med Chem, 2009).
Active and inactive are the calls of the source. No cut-off for these calls is given here.

Tests used:
N2a [1] = test: Neurotoxicity against mouse N2A cells after 24 hrs by MTS assay; assay type: toxicity, cell-based
[2] = Inhibition of amyloid beta (1-42) self-aggregation at 4uM after 24 hrs by sedimentation assay with ELISA
[3] = Inhibition of amyloid beta (1-42) self-aggregation after 24 hrs by sedimentation assay with ELISA
N2a [4] = test: Neuroprotective activity against amyloid beta-induced neurotoxicity in mouse N2A cells after 24 hrs by MTS assay; assay type: functional, cell-based
[5] = Inhibition of amyloid beta (1-42) fibril formation after 24 hrs by thioflavin T fluorescence method

inhibition [2] [%]	IC50 [3] [nM]	SMILES	Activity (N2a [1])	Activity (N2a [4])	Activity [5]
80	2750	CNc1ccc(C(=O)NC(CCCCNC(=O)OCc2ccccc2)C(=O)O)cc1 (centres undefined)	Non-toxic	–	–
–	–	COC(=O)C[C@](O)(CCC(C)(C)O)C(=O)O[C@@H]1C(OC)=C[C@]23CCCN2CCc2cc4c(cc2[C@H]13)OCO4 [HARRINGTONINE]	Non-toxic	inactive	inactive
80	1950	O=C(Cc1ccccc1)NC(CSSCC(NC(=O)Cc1ccccc1)C(=O)O)C(=O)O (centres undefined)	Non-toxic	–	–
